pIC50: −log10 of the molar value.
Key:
Format in all cases: biochemical
[1] = target: T1, Full length Akt3 (Homo sapiens, UniProt Q9Y243); assay: In vitro Akt kinase enzymatic assay (HTRF), Akt3; details: 0.6 nM Akt3, substrate solution with 5 mM ATP, 25° C. 1 hr
T1 construct: Full length Akt1 (cat #P2999), Akt2 (cat #PV3184), Akt3 (cat #PV3185); purchased PerkinElmer PV3185
Protocol: (§1) Compounds herein were tested for inhibitory activity of Akt targets according to the following in vitro assay. Full length Akt1 (cat #P2999), Akt2 (cat #PV3184), Akt3 (cat #PV3185), peptide substrate, Ulight-Crosstide (cat #TRF0106-M), Ultra-Europium anti-phospho-Crosstide (cat #TRF-0202-M), and 10×LANCE detection buffer (cat #CR97-100) were purchased from PerkinElmer. In general, assay buffer conditions were chosen based on obtaining optimal enzymatic and linear activities. The assay buffer contains 50 mM HEPES, 10 mM MgCl2, 5 mM DTT, 0.005% Tween20 at pH 7.8. Compound stock (0.001 mM) was prepared in DMSO. The compound plate was prepared by 3-fold and 11-point serial dilutions. 0.5 μL of the compound in DMSO was transferred from the compound plate to the assay plate. Enzyme solution (0.4 nM of Akt1, 0.6 nM of Akt2 or 0.6 nM of Akt3) was prepared in the assay buffer. Note that the enzyme concentration given is based on the given stock concentration reported by the vendor. 0.1 μM substrate solution was prepared in the assay buffer with addition of 5 mM ATP. 10 μL of the enzyme solution was added to the assay plate and then 10 μL of substrate solution was added to the assay plate. The plate was protected from light and the reaction was incubated at 25° C. for 1 hr. The reaction was stopped by adding 10 μL of a solution containing 30 mM EDTA, and 3 nM Ultra Europium anti-phospho Crosstide in 1× detection buffer. The plate was incubated for 15-30 min at room temperature and HTRF (homogenous time resolved fluorescence) was measured on a plate reader. Percentage of inhibition was calculated for each concentration and IC50 value was generated from curve fitting. See Table 8 for data related to compounds of the examples.

[2] = target: T2, Full length Akt1 (Homo sapiens, UniProt P31749); assay: In vitro Akt kinase enzymatic assay (HTRF), Akt1; details: 0.4 nM Akt1, substrate solution with 5 mM ATP, 25° C. 1 hr
T2 construct: Full length Akt1 (cat #P2999); purchased PerkinElmer P2999
T2 sequence (P31749 whole entry): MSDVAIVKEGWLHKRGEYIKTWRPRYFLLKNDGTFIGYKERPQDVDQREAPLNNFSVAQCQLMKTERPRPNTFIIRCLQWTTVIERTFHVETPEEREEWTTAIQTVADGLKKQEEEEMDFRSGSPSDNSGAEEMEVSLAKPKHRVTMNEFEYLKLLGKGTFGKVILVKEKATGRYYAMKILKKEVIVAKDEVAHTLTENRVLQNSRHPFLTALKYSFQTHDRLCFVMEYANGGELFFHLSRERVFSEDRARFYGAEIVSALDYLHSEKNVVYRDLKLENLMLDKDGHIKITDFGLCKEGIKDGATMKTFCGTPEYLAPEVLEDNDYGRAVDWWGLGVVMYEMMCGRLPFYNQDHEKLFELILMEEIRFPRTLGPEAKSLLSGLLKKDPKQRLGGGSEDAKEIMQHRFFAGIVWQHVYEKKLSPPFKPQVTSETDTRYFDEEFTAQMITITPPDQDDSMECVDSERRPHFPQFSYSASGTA
Protocol: as §1

[3] = target: T3, Full length PKA (Homo sapiens, UniProt P17612); assay: PKA in vitro enzymatic assay (HTRF); details: 0.035 nM enzyme solution, substrate solution with 5 mM ATP, 25° C. 1 hr
T3 construct: Full length PKA (cat #P2912); purchased Invitrogen P2912
Protocol: Full length PKA (cat #P2912), peptide substrate, fluorescein CREBtide peptide (cat #PV3508), Tb-Crebtide p-S133 Ab (cat #PV3566), and Lanthascreen TR-FRET Dilution Buffer stored (part # PV3574) were purchased from Invitrogen. In general, assay buffer conditions were chosen based on obtaining optimal and linear enzymatic activities. The assay buffer contains 50 mM HEPES, 10 mM MgCl2, 5 mM DTT, 0.005% Tween20 at pH 7.8. Compound stock (0.001 mM) was prepared in DMSO. The compound plate was prepared by 3-fold and 11-point serial dilutions. 0.5 μL of the compound in DMSO was transferred from the compound plate to the assay plate. 0.035 nM enzyme solution was prepared in the assay buffer. Note that the enzyme concentration given is based on the given stock concentration reported by the vendor. 0.1 μM substrate solution was prepared in the assay buffer with addition of 5 mM ATP. 10 μL of the enzyme solution was added to the assay plate and then 10 μL of substrate solution was added to the assay plate. The plate was protected from light and the reaction was incubated at 25° C. for 1 hr. The reaction was stopped by adding 10 μL of a solution containing 30 mM EDTA, and 1.5 nM Tb-Crebtide p-S133 Ab in 1× detection buffer. The plate was incubated for 15-30 min at room temperature and HTRF (homogenous time resolved fluorescence) was measured on a plate reader. Percentage of inhibition was calculated for each concentration and IC50 value was generated from curve fitting. See Table 8 for data related to compounds of the examples.

[4] = target: T4, Full length Akt2 (Homo sapiens, UniProt P31751); assay: In vitro Akt kinase enzymatic assay (HTRF), Akt2; details: 0.6 nM Akt2, substrate solution with 5 mM ATP, 25° C. 1 hr
T4 construct: Full length Akt1 (cat #P2999), Akt2 (cat #PV3184); purchased PerkinElmer PV3184
T4 sequence (P31751 whole entry): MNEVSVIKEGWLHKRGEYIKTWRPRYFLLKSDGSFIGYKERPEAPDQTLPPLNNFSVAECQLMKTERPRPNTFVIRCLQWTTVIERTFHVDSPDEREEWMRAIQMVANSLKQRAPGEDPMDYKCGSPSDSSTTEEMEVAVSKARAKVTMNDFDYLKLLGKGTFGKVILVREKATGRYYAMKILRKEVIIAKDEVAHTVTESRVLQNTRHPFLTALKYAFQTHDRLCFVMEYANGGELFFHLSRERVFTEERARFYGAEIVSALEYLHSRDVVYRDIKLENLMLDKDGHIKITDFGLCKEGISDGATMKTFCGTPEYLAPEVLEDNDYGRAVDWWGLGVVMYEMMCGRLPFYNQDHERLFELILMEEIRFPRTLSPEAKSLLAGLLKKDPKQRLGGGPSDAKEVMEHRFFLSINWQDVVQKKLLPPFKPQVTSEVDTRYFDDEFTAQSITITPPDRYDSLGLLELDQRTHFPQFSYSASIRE
Protocol: as §1

T1 sequence (Q9Y243 whole entry): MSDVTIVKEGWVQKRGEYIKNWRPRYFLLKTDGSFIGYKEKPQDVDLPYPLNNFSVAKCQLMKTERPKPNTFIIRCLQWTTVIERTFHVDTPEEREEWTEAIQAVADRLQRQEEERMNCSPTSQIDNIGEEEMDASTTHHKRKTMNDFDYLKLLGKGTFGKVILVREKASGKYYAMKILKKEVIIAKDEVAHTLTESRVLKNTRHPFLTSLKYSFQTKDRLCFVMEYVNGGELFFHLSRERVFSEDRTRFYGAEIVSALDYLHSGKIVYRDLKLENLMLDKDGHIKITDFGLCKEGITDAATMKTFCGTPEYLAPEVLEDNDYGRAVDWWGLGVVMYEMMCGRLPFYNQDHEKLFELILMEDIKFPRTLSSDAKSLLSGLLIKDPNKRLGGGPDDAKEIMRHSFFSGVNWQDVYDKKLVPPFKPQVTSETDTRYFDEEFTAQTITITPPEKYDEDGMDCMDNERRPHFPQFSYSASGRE

pIC50 [1] | pIC50 [2] | pIC50 [3] | pIC50 [4] | SMILES
> 6.30 | 5.30 to 6.30 | < 5.30 | 5.30 to 6.30 | Cn1ncc(-c2ccccc2)c1-c1ccc2c(c1)CN([C@H](CN)Cc1cccc(F)c1)C2=O [Example 14, 2-[(1S)-2-amino-1-(3-fluorobenzyl)ethyl]-5-(4-phenyl-1-methyl-1H-pyrazol-5-yl)isoindolin-1-one]
> 6.30 | 5.30 to 6.30 | < 5.30 | < 5.30 | Cn1ncc(-c2cccs2)c1-c1ccc2c(c1)CN([C@H](CN)Cc1cccc(F)c1)C2=O [Example 15, 2-[(1S)-2-amino-1-(3-fluorobenzyl)ethyl]-5-[1-methyl-4-(2-thienyl)-1H-pyrazol-5-yl]isoindolin-1-one]
> 6.30 | 5.30 to 6.30 | < 5.30 | < 5.30 | Cn1ncc(-c2ccc3ccccc3c2)c1-c1ccc2c(c1)CN([C@H](CN)Cc1cccc(F)c1)C2=O [Example 21, 2-[(1S)-2-amino-1-(3-fluorobenzyl)ethyl]-5-[1-methyl-4-(2-naphthyl)-1H-pyrazol-5-yl]isoindolin-1-one]
< 5.30 | < 5.30 | < 5.30 | < 5.30 | Cn1ncc(-c2cncnc2)c1-c1ccc2c(c1)CN([C@H](CN)Cc1cccc(F)c1)C2=O [Example 23, 2-[(1S)-2-amino-1-(3-fluorobenzyl)ethyl]-5-(1-methyl-4-pyrimidin-5-yl-1H-pyrazol-5-yl)isoindolin-1-one]
< 5.30 | < 5.30 | < 5.30 | < 5.30 | Cn1ncc(-c2cccnc2F)c1-c1ccc2c(c1)CN([C@H](CN)Cc1cccc(F)c1)C2=O [Example 24, 2-[(1S)-2-amino-1-(3-fluorobenzyl)ethyl]-5-[4-(2-fluoropyridin-3-yl)-1-methyl-1H-pyrazol-5-yl]isoindolin-1-one]
< 5.30 | 5.30 to 6.30 | < 5.30 | < 5.30 | CNC(=O)c1ccc(-c2cnn(C)c2-c2ccc3c(c2)CN([C@H](CN)Cc2cccc(F)c2)C3=O)cn1 [Example 29, 5-(5-{2-[(1S)-2-amino-1-(3-fluorobenzyl)ethyl]-1-oxo-2,3-dihydro-1H-isoindol-5-yl}-1-methyl-1H-pyrazol-4-yl)-N-methylpyridine-2-carboxamide]
5.30 to 6.30 | 5.30 to 6.30 | < 5.30 | 5.30 to 6.30 | CC(C)NC[C@H](Cc1cccc(F)c1)N1Cc2cc(-c3c(Cl)cnn3C)ccc2C1=O [Example 32, 5-(4-chloro-1-methyl-1H-pyrazol-5-yl)-2-[(1S)-1-(3-fluorobenzyl)-2-(isopropylamino)ethyl]isoindolin-1-one]

The next lines start with the molecule.

SMILES | pIC50 [1] | pIC50 [2] | pIC50 [3] | pIC50 [4]
Cn1ncc(Cl)c1-c1ccc2c(c1)CN(C(CN)c1ccccc1)C2=O (stereo in doubt) [Example 114, 2-[(1R)-2-amino-1-phenylethyl]-5-(4-chloro-1-methyl-1H-pyrazol-5-yl)isoindolin-1-one] | 5.30 to 6.30 | > 6.30 | < 5.30 | 5.30 to 6.30
Cn1ncc(-c2ccsc2)c1-c1ccc2c(c1)CN([C@H](CN)Cc1cccc(F)c1)C2=O [Example 16, 2-[(1S)-2-amino-1-(3-fluorobenzyl)ethyl]-5-[1-methyl-4-(3-thienyl)-1H-pyrazol-5-yl]isoindolin-1-one] | > 6.30 | 5.30 to 6.30 | < 5.30 | 5.30 to 6.30
Cn1nccc1-c1cnn(C)c1-c1ccc2c(c1)CN([C@H](CN)Cc1cccc(F)c1)C2=O [Example 17, 2-[(1S)-2-amino-1-(3-fluorobenzyl)ethyl]-5-(1′,2-dimethyl-1′H,2H-3,4′-bipyrazol-5′-yl)isoindolin-1-one] | < 5.30 | < 5.30 | < 5.30 | < 5.30
Cn1ncc(-c2ccncc2)c1-c1ccc2c(c1)CN([C@H](CN)Cc1cccc(F)c1)C2=O [Example 18, 2-[(1S)-2-amino-1-(3-fluorobenzyl)ethyl]-5-(1-methyl-4-pyridin-4-yl-1H-pyrazol-5-yl)isoindolin-1-one] | 5.30 to 6.30 | < 5.30 | < 5.30 | < 5.30
Cn1ncc(-c2nccs2)c1-c1ccc2c(c1)CN([C@H](CN)Cc1cccc(F)c1)C2=O [Example 20, 2-[(1S)-2-amino-1-(3-fluorobenzyl)ethyl]-5-[1-methyl-4-(1,3-thiazol-2-yl)-1H-pyrazol-5-yl]isoindolin-1-one] | 5.30 to 6.30 | > 6.30 | < 5.30 | 5.30 to 6.30
Cn1ncc(-c2cccc3ccccc23)c1-c1ccc2c(c1)CN([C@H](CN)Cc1cccc(F)c1)C2=O [Example 22, 2-[(1S)-2-amino-1-(3-fluorobenzyl)ethyl]-5-[1-methyl-4-(1-naphthyl)-1H-pyrazol-5-yl]isoindolin-1-one] | < 5.30 | < 5.30 | < 5.30 | < 5.30
Cn1ncc(-c2ccc(F)nc2)c1-c1ccc2c(c1)CN([C@H](CN)Cc1cccc(F)c1)C2=O [Example 25, 2-[(1S)-2-amino-1-(3-fluorobenzyl)ethyl]-5-[4-(6-fluoropyridin-3-yl)-1-methyl-1H-pyrazol-5-yl]isoindolin-1-one] | < 5.30 | < 5.30 | < 5.30 | < 5.30
Cn1ncc(-c2cncc(F)c2)c1-c1ccc2c(c1)CN([C@H](CN)Cc1cccc(F)c1)C2=O [Example 26, 2-[(1S)-2-amino-1-(3-fluorobenzyl)ethyl]-5-[4-(5-fluoropyridin-3-yl)-1-methyl-1H-pyrazol-5-yl]isoindolin-1-one] | < 5.30 | < 5.30 | < 5.30 | < 5.30
COc1ncccc1-c1cnn(C)c1-c1ccc2c(c1)CN([C@H](CN)Cc1cccc(F)c1)C2=O [Example 27, 2-[(1S)-2-amino-1-(3-fluorobenzyl)ethyl]-5-[4-(2-methoxypyridin-3-yl)-1-methyl-1H-pyrazol-5-yl]isoindolin-1-one] | < 5.30 | < 5.30 | < 5.30 | < 5.30
COc1ccc(-c2cnn(C)c2-c2ccc3c(c2)CN([C@H](CN)Cc2cccc(F)c2)C3=O)cn1 [Example 28, 2-[(1S)-2-amino-1-(3-fluorobenzyl)ethyl]-5-[4-(6-methoxypyridin-3-yl)-1-methyl-1H-pyrazol-5-yl]isoindolin-1-one] | < 5.30 | 5.30 to 6.30 | < 5.30 | < 5.30
CNC[C@H](Cc1cccc(F)c1)N1Cc2cc(-c3c(Cl)cnn3C)ccc2C1=O [Example 30, 5-(4-chloro-1-methyl-1H-pyrazol-5-yl)-2-[(1S)-1-(3-fluorobenzyl)-2-(methylamino)ethyl]isoindolin-1-one] | 5.30 to 6.30 | > 6.30 | < 5.30 | 5.30 to 6.30
CCNC[C@H](Cc1cccc(F)c1)N1Cc2cc(-c3c(Cl)cnn3C)ccc2C1=O [Example 31, 5-(4-chloro-1-methyl-1H-pyrazol-5-yl)-2-[(1S)-2-(ethylamino)-1-(3-fluorobenzyl)ethyl]isoindolin-1-one] | 5.30 to 6.30 | > 6.30 | < 5.30 | 5.30 to 6.30
